Results on two compounds are retold here after publication PMC10272112 (Nature Communications, 2023).

For one assay, the system named is NCOR2 (Homo sapiens). Description: Chemoproteomic competition pulldown assay (co-competed NCoR partner). The class given is binding. Particulars: iQ, SW620 lysate. As to the method:
(§1) To identify proteins directly bound by lipoic acid, we employed a chemoproteomic competition assay. Briefly, (R/S)-LA was immobilized on sepharose beads via an amidation reaction to form an affinity matrix (abbreviated as iL; Fig. 1a). This affinity matrix can be incubated with cell lysate to pull down potential LA or LM target proteins and identify these targets via bottom-up proteomics. In a competition assay, free LA or LM were incubated with lysate at different concentrations before pulling down and quantifying target proteins. […] (Fig. 1b, see “Methods” for details). […] The lysate buffer used in this assay contains 1 mM DTT to mimic the intracellular reductive milieu and to reduce lipoic acid and LM. […] Additional competition assays performed in lung adenocarcinoma cell A549 lysate also identified HDAC1, HDAC2, and HDAC6 as targets (Supplementary Fig. 1b). Amongst the three cell lines tested, HDACs were the only confidently identified targets across the 1500–3000 proteins quantified in these assays. […] We validated the results by analogous pulldown competition assays using two other affinity matrices prepared via the immobilization of either the HDAC inhibitor Quisinostat (iQ) and an analog of the class IIa HDAC inhibitor Bürli’s 31[14] (iC)[12]. We have previously shown that these affinity matrices specifically bind to the active sites of HDACs and have used them for HDACi selectivity profiling. Indeed, binding of (R/S)-LA and (R/S)-LM to HDAC1, HDAC2, HDAC3, HDAC6, and, to a lesser extent, HDAC8 was confirmed in these assays (Supplementary Fig. 1c, d). No binding to class IIa HDACs or the recently discovered common HDAC inhibitor off-target MBLAC2 was observed (Supplementary Fig. 1e)[12]. […] This observation might reflect electrostatic repulsion between the HDAC10 active site gate-keeper glutamic acid residues[15],[16] and the terminal carboxylic acid of LA.
(§2) To assess the degree of protein depletion from lysates by the affinity matrix, a second pulldown (PDPD) with fresh beads was performed using the unbound protein fraction from the vehicle control flow through. The beads were washed (1 × 1 mL of lysis buffer without inhibitors and only 0.4% Igepal, 2 × 2 mL of lysis buffer without inhibitors and only 0.2% Igepal), and captured proteins were denatured with 8 M urea buffer, alkylated with 55 mM chloroacetamide and digested with Trypsin according to standard procedures. The resulting peptides were desalted on a C18 filter plate (Sep-Pak® tC18 µElution Plate, Waters), vacuum dried, and stored at −20 °C until LC–MSMS measurement.
(§3) For the competition assays, relative binding was calculated based on the protein intensity ratio to the DMSO control for every single inhibitor concentration. EC50 values were derived from a four-parameter log-logistic regression with variable slope (constrain: bottom > 0). The obtained EC50 values were multiplied with a protein-dependent correction factor (cf), resulting in the apparent Kd value (Kd^app). The correction factor is determined by calculating the ratio of the protein intensity of two consecutive pulldowns of the vehicle control sample[13]. Targets of the inhibitors were annotated manually according to published procedures[12],[46],[47]. […] Additionally, the number of unique peptides and MSMS counts per condition were taken into account. Positive target binding across several independent experiments performed with different cell lysates further substantiated our confidence for a true positive drug-target binding event.

The test system of the next assay is A549 cells. Description: CellRox deep red assay for tBuOOH-induced ROS. The following applies: for tBuOOH-induced ROS (CellRox), relative to DMSO, Mean / tBuOOH-induced ROS (CellRox), relative to DMSO, replicate values: sheet 4c, DMSO mean = 1.
The subject of a further assay is NCOR1 (Homo sapiens). Description: Chemoproteomic competition pulldown assay (co-competed NCoR partner). The class given is binding. The following applies: iQ, SW620 lysate. The protocol: as §1, §2, §3
The target of a further assay is T1, HDAC10 (Homo sapiens, UniProt Q969S8).
T1 construct: host or cells: HeLa mono-clones, stably expressing
T1 sequence (Q969S8 1-669): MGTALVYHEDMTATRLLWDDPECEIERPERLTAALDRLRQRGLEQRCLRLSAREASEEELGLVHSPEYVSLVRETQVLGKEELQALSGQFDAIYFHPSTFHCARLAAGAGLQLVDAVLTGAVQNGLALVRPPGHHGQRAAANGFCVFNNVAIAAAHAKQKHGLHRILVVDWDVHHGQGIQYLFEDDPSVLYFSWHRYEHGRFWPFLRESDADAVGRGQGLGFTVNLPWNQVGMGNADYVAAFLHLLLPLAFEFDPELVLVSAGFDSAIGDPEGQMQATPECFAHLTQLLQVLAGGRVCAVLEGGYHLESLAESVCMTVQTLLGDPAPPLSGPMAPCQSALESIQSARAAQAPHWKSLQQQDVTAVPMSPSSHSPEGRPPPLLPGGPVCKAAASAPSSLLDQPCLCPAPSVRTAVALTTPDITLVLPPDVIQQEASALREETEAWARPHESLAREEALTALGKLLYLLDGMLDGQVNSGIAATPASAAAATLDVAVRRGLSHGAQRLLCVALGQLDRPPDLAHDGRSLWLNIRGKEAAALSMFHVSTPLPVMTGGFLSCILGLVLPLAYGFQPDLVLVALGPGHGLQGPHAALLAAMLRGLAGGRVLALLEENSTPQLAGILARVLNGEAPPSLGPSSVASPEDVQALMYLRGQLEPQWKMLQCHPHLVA
Description: NanoBRET intracellular target engagement assay. Particulars: HeLa cells. The class given is cell-based. As to the method: For the production of transfected HeLa mono-clones stably expressing HDAC-nanoBRET fusion proteins of HDAC10 and HDAC6-catalytic domain 2 (HDAC6CD2), plasmids expressing a fusion of HDAC10 with nanoluciferase were obtained from Promega (N2170). HeLa cells (0.75 × 10^6) were seeded in a 6 cm dish and were transfected with a mix of 10 μg plasmid and 3 μL Fugene in 200 μL OptiMEM after 24 h. The intracellular target engagement assay on HDAC10 and HDAC6CD2 was performed using the NanoBRET™ Target Engagement Intracellular HDAC Assay (Promega N2081 and N2090) as described by the kit manufacturer in a 96-well plate (Corning 3600) format with 2 × 10^4 cells per well and a tracer concentration of 0.3 μM. Inhibitors were dosed with a D300e Digital Dispenser (Tecan). DMSO concentrations were normalized to 0.5% for all wells. After dosing, assay plates were shaken at 800 rpm and incubated at 37 °C for 2 h followed by measurement of 450 nm and 650 nm luminescence (80 nm bandwidth) at room temperature with a CLARIOstar (BMG Labtech) plate reader 2 min after NanoLuc substrate addition.
(Bioluminescence resonance energy transfer reports proximity on the nanometre scale.)

Where “and” joins values, the source holds several entries; their conditions need not be identical. Equal values may be shown once.

Chain of NCOR1 (Homo sapiens) (O15379 whole entry): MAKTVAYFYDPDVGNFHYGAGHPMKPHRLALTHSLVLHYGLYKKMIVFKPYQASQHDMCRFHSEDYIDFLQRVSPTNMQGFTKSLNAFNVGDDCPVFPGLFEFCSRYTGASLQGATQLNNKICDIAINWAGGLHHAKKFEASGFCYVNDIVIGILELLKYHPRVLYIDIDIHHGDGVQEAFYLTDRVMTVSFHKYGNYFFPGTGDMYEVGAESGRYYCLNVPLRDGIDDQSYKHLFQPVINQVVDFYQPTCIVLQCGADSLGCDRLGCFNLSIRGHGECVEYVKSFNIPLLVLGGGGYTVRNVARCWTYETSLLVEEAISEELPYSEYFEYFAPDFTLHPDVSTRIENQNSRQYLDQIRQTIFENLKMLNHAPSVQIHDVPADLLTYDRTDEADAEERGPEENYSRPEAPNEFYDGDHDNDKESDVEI
Chain of NCOR1 (Homo sapiens) (O75376 whole entry, further chain): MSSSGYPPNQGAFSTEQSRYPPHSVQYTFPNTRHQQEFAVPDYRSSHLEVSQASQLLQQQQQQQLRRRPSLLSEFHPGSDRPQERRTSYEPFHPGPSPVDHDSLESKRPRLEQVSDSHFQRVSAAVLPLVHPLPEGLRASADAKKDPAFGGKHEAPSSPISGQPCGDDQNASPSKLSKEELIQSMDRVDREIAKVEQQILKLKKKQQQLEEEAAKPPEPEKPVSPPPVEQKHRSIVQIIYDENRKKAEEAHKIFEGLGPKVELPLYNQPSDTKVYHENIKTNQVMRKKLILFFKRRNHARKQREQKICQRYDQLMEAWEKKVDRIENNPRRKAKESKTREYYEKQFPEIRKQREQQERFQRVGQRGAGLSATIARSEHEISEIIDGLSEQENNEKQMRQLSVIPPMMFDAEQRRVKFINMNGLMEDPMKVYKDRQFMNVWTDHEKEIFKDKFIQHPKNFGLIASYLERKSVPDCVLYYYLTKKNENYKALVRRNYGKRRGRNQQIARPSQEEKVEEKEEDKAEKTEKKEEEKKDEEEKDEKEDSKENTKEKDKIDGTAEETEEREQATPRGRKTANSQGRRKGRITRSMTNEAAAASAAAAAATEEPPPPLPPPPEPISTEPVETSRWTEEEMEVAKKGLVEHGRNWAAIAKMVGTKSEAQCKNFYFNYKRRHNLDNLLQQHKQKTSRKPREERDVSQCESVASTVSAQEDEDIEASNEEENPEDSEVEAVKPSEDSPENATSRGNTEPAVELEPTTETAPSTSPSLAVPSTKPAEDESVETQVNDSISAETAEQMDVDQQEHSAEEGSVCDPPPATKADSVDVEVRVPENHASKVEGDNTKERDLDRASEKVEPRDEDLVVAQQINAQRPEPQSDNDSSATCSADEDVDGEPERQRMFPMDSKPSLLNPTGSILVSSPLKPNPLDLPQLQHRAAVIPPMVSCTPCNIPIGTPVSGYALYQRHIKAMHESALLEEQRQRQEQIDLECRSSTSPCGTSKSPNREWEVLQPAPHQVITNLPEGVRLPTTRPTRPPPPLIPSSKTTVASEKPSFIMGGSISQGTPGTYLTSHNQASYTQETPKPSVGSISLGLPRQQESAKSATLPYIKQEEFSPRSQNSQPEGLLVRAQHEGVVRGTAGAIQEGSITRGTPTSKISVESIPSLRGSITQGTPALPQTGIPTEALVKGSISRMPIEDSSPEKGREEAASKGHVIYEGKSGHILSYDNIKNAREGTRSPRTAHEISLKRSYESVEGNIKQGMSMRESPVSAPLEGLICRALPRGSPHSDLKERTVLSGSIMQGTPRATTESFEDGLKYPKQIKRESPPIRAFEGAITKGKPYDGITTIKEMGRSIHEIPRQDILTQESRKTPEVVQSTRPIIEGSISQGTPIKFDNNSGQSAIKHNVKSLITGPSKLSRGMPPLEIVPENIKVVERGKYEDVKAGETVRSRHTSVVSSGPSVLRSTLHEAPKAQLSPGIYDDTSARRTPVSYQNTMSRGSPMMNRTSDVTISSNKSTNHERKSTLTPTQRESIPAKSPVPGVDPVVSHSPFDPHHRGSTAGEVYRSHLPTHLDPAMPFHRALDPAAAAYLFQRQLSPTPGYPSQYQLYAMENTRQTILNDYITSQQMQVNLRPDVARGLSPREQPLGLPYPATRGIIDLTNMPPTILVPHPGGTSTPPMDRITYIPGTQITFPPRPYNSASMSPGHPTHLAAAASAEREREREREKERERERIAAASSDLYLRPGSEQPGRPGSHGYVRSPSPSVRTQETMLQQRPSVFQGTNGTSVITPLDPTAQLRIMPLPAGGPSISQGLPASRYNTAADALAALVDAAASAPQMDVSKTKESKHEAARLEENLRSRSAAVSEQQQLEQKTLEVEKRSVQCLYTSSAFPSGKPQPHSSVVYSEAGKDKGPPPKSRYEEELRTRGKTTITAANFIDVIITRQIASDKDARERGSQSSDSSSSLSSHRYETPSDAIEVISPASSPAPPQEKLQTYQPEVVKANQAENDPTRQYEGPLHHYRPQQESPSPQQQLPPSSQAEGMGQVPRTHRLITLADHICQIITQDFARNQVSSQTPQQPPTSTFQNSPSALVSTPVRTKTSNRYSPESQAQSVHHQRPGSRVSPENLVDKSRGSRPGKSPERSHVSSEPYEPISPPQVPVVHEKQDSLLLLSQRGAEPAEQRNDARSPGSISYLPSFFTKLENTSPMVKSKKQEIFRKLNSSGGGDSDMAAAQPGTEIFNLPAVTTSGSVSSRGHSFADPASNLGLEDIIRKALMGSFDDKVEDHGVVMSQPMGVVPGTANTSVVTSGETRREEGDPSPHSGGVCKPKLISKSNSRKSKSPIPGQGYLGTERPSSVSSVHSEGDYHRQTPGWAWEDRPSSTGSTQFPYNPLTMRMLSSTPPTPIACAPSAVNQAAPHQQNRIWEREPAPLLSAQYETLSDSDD
Description for A549 cells: A549 cells were maintained in DMEM (Sigma) supplemented with 10% fetal bovine serum (Pan Biotech). […] The CellRox assay was performed according to the product guidelines (ThermoFisher). Briefly, cells were treated with lipoic acid, N-acetyl-cysteine (NAC), or vector control (DMSO) for 1 h, followed by a 2 h treatment with 200 µM tert-butyl hydroperoxide, and then stained with 5 µM CellRox Deep Red for 1 h. Cells were washed twice with FluoroBrite DMEM (ThermoFisher) supplemented with 10% FBS before imaging. CellRox Deep Red signal intensity was measured on a Leica DMI 6000 B epifluorescent microscope with a Cy5 filter set. […] Significance was calculated by ANOVA with a post hoc Dunnett’s multiple comparisons test against the DMSO control (GraphPad).

For `O=C(O)CCCCC1CCSS1` (racemic) [(R/S)-LA, (R/S)-lipoic acid], the “relative binding vs DMSO” value was 0 in the assay on NCOR2 (Homo sapiens) (log10 M -3.52288); 0 in the assay on NCOR2 (Homo sapiens) (log10 M -4); 0.568 in the assay on NCOR2 (Homo sapiens) (log10 M -4.52288); 0.5133 in the assay with NCOR2 (Homo sapiens) (log10 M -5); 0.9883 with NCOR2 (Homo sapiens) (log10 M -5.52288); 0.9231 in the assay on NCOR2 (Homo sapiens) (log10 M -6). For the same compound, the “relative binding vs DMSO” value in the assay on NCOR2 (Homo sapiens) (log10 M -6.52288) is given as 1.028; in the assay on NCOR2 (Homo sapiens) (log10 M -7), 1.032. Further, the “levels of ROS (oxidative stress) relative to control” value in the assay on A549 cells (100 µM drug pre-treatment, 2 h 200 µM tBuOOH) is given as 60–70%. Besides, the “tBuOOH-induced ROS (CellRox), relative to DMSO, Mean” value in the assay on A549 cells ((R/S)-LA 10 ?M) was determined as 0.7284; in the assay with A549 cells ((R/S)-LA 30 ?M), 0.7039; in the assay on A549 cells ((R/S)-LA 100 ?M), 0.6085; with A549 cells ((R/S)-LA 300 ?M), 0.7233. Besides, the “tBuOOH-induced ROS (CellRox), relative to DMSO, replicate values” in the assay on A549 cells ((R/S)-LA 10 ?M) was 0.6361 and 0.7994 and 0.7496; in the assay on A549 cells ((R/S)-LA 30 ?M) it was 0.5919 and 0.6862 and 0.8337; in the assay on A549 cells ((R/S)-LA 100 ?M), 0.608 and 0.6603 and 0.5572; in the assay with A549 cells ((R/S)-LA 300 ?M) it was 0.909 and 0.609 and 0.652.
`NC(=O)CCCCC1CCSS1` (racemic) [(R/S)-LM, (R/S)-lipoamide]: the “relative binding vs DMSO” value is on record as 0.2142 in the assay with NCOR1 (Homo sapiens) (log10 M -3.52288); 0.3668 in the assay on NCOR1 (Homo sapiens) (log10 M -4); 0.5065 in the assay with NCOR1 (Homo sapiens) (log10 M -4.52288); 0.4972 in the assay on NCOR1 (Homo sapiens) (log10 M -5); 0.5554 in the assay on NCOR1 (Homo sapiens) (log10 M -5.52288); 0.6839 with NCOR1 (Homo sapiens) (log10 M -6). In addition, the “relative binding vs DMSO” value in the assay with NCOR1 (Homo sapiens) (log10 M -6.52288) is listed as 0.8502; in the assay with NCOR1 (Homo sapiens) (log10 M -7) it was 0.9007. Also, the “intracellular binding to HDAC10” value at HDAC10 is “dose-dependent intracellular binding”.
